Test results from US7642261B2, “Use of 1-[4-(5-cyanoindol-3-yl)butyl]-4-(2-carbamoyl-benzofuran-5-yl)-piperazine and its physiologically acceptable salts” (Merck Patent GmbH, priority 2002, dated 2010).

Test system: mice
Assay: Marble Burying Test (model for OCSD including OCD)
Format: in vivo
Settings: dose equieffective to 3 mg/kg of the hydrochloride (92% inhibition)
Protocol: A typical model for OCSD including OCD is the Marble Burying Test according to Y. Ichimaru, T. Egawa, A. Sawa, Jpn. J. Pharmacol. 1995, 68: 65-70.
The apparatus consists of an open cubic box with 25 clean glass marbles evenly spaced on sawdust. Individual mice are placed in the test box, and the number of glass marbles left uncovered after 20 minutes are counted. 1-[4-(5-cyanoindol-3-yl)butyl]-4-(2-carbamoyl-benzofuran-5-yl)-piperazine or one of its physiologically acceptable salts, in particular 1-[4-(5-cyanoindol-3-yl)butyl]-4-(2-carbamoyl-benzofuran-5-yl)-piperazine hydrochloride, following subcutaneous application inhibits mable burying in mice dose-dependently. For example, a dose of 3 mg/kg of 1-[4-(5-cyanoindol-3-yl)butyl]-4-(2-carbamoyl-benzofuran-5-yl)-piperazine hydrochloride nearly completely (92%) inhibits marble burying; equieffective doses of conventional serotonin reuptake inhibitors are e.g. 20 mg/kg for fluvoxamine or 17 mg/kg for fluoxetine and an equieffective dose of the 5-HT1A agonist ipsapirone is 10 mg/kg.

O=C1c2ccccc2S(=O)(=O)N1CCCCN1CCN(c2ncccn2)CC1 [ipsapirone]
equieffective dose for inhibition of marble burying: 10 mg/kg

COCCCC/C(=N\OCCN)c1ccc(C(F)(F)F)cc1 [fluvoxamine]
equieffective dose for inhibition of marble burying: 20 mg/kg

CNCCC(Oc1ccc(C(F)(F)F)cc1)c1ccccc1 (stereo not drawn) [fluoxetine]
equieffective dose for inhibition of marble burying: 17 mg/kg
